Key:
Test in all cases: biochemical
Design in all cases: KinomeScan competition binding panel (DiscoveRx), percent of control at 1 uM
Details in all cases: read-out: Percent Control
[1] = target: T1, FAK (Homo sapiens, UniProt Q05397)
T1 construct: gene PTK2
Outline: (§1)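 KinomeScan technology used to profile binding across a panel of 456 kinases and mutants.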

[2] = target: RET(M918T) (Homo sapiens, UniProt P07949, M918T)
Outline: as §1

[3] = target: FLT1 (Homo sapiens, UniProt P17948)
Outline: as §1

[4] = target: PIK3CA(Q546K) (Homo sapiens, UniProt P42336, Q546K)
Outline: as §1

[5] = target: IRAK1 (Homo sapiens, UniProt P51617)
Outline: as §1

[6] = target: GRK1 (Homo sapiens, UniProt Q15835)
Outline: as §1

[7] = target: T2, CDC2L5 (Homo sapiens, UniProt Q14004)
T2 construct: gene CDK13
Outline: as §1

[8] = target: MAK (Homo sapiens, UniProt P20794)
Outline: as §1

[9] = target: T3, PIK4CB (Homo sapiens, UniProt Q9UBF8)
T3 construct: gene PI4KB
Outline: as §1

[10] = target: AXL (Homo sapiens, UniProt P30530)
Outline: as §1

[11] = target: HUNK (Homo sapiens, UniProt P57058)
Outline: as §1

[12] = target: FLT4 (Homo sapiens, UniProt P35916)
Outline: as §1

[13] = target: EPHB1 (Homo sapiens, UniProt P54762)
Outline: as §1

[14] = target: GRK7 (Homo sapiens, UniProt Q8WTQ7)
Outline: as §1

[15] = target: T4, ASK1 (Homo sapiens, UniProt Q99683)
T4 construct: gene MAP3K5
Outline: as §1

[16] = target: BRAF (Homo sapiens, UniProt P15056)
Outline: as §1

[17] = target: ACVR2A (Homo sapiens, UniProt P27037)
Outline: as §1

[18] = target: T5, RPS6KA5(Kin.Dom.1-N-terminal) (Homo sapiens, UniProt O75582)
T5 construct: Kin.Dom.1-N-terminal
Outline: as §1

[19] = target: PRKCE (Homo sapiens, UniProt Q02156)
Outline: as §1

[20] = target: PIP5K1C (Homo sapiens, UniProt O60331)
Outline: as §1

[21] = target: KIT(L576P) (Homo sapiens, UniProt P10721, L576P)
Outline: as §1

[22] = target: FGR (Homo sapiens, UniProt P09769)
Outline: as §1

[23] = target: T6, RIPK5 (Homo sapiens, UniProt Q6XUX3)
T6 construct: gene DSTYK
Outline: as §1

[24] = target: ALK (Homo sapiens, UniProt Q9UM73)
Outline: as §1

[25] = target: CSNK1G3 (Homo sapiens, UniProt Q9Y6M4)
Outline: as §1

CSNK1G3, sequence (Q9Y6M4 whole entry): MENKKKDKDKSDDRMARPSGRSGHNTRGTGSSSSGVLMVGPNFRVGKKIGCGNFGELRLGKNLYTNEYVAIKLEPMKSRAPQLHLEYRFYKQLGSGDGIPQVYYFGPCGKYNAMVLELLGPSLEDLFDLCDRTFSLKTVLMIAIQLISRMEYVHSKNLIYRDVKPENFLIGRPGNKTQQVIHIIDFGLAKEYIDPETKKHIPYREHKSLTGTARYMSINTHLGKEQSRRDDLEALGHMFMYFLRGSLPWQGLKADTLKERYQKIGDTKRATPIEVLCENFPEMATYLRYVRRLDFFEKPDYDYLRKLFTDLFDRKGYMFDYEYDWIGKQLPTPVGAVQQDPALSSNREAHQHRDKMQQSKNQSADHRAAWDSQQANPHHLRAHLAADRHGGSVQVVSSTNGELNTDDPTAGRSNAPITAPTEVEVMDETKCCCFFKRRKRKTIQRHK
KIT(L576P), sequence (P10721 whole entry L576P): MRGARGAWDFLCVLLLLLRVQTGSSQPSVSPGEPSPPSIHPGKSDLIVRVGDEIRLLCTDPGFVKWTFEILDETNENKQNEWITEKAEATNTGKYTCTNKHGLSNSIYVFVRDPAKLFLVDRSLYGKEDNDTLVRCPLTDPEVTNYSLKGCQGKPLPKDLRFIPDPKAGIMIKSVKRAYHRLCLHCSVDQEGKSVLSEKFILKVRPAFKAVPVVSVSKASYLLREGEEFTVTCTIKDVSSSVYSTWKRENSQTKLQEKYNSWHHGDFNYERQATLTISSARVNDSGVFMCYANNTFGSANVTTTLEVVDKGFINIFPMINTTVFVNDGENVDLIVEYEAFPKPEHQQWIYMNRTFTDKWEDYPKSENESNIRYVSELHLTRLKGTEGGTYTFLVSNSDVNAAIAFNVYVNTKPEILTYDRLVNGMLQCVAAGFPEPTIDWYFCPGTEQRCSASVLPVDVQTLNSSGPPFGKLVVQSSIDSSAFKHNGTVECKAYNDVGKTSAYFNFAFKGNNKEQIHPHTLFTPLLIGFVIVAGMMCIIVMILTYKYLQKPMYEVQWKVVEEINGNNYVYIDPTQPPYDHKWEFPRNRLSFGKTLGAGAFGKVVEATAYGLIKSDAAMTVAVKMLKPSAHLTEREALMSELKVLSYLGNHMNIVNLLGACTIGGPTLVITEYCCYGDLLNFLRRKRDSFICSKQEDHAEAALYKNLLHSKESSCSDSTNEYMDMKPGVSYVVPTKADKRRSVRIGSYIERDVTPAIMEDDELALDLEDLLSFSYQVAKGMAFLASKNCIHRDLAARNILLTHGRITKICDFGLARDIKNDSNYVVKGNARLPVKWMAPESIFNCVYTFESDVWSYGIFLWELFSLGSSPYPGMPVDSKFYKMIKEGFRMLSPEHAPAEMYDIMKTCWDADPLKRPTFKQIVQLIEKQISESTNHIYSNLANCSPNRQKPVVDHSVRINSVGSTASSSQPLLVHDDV
PIP5K1C, sequence (O60331 whole entry): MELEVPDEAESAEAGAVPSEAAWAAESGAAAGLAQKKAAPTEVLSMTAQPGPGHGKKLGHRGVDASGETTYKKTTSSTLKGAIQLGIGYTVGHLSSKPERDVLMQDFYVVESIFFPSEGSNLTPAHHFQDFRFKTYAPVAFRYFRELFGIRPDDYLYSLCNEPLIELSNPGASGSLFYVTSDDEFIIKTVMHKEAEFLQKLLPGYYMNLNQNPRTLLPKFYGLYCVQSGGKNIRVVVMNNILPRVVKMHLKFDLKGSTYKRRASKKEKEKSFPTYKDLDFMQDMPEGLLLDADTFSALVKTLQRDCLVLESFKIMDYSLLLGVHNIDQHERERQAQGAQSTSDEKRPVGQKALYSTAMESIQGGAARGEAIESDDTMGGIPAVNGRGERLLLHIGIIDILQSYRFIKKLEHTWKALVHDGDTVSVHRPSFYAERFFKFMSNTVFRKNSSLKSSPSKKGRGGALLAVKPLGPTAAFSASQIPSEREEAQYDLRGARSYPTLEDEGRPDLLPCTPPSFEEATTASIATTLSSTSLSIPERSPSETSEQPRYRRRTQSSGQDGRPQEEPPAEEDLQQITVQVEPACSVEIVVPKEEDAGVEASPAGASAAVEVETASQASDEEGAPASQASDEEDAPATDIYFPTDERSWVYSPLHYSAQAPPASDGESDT
T1 sequence (Q05397 whole entry): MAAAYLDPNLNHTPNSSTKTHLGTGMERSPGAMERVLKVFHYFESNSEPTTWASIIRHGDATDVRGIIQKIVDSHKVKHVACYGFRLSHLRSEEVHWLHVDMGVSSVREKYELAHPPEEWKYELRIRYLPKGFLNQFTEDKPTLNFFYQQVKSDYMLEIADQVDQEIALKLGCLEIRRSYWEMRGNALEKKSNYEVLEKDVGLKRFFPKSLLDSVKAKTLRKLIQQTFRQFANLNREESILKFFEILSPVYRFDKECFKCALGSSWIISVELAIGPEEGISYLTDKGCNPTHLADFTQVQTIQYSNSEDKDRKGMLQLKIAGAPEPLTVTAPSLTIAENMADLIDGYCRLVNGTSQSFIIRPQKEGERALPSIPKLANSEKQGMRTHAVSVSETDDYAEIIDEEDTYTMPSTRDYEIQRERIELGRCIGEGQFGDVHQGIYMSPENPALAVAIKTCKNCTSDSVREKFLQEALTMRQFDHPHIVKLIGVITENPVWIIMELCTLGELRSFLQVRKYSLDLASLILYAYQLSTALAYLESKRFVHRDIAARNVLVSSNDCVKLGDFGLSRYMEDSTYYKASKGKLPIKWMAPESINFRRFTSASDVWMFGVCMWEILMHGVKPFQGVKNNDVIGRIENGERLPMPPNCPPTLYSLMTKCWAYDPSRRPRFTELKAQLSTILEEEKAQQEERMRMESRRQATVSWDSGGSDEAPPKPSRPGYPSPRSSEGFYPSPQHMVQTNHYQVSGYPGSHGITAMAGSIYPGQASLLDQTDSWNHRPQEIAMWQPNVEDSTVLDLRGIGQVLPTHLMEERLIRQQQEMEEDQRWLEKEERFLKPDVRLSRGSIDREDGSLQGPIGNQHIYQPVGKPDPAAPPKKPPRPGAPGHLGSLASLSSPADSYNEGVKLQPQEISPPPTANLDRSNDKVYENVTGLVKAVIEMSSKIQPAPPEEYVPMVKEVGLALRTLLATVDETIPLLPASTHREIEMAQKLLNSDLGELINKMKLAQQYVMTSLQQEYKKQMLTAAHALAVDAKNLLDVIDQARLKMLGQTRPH
BRAF, sequence (P15056 whole entry): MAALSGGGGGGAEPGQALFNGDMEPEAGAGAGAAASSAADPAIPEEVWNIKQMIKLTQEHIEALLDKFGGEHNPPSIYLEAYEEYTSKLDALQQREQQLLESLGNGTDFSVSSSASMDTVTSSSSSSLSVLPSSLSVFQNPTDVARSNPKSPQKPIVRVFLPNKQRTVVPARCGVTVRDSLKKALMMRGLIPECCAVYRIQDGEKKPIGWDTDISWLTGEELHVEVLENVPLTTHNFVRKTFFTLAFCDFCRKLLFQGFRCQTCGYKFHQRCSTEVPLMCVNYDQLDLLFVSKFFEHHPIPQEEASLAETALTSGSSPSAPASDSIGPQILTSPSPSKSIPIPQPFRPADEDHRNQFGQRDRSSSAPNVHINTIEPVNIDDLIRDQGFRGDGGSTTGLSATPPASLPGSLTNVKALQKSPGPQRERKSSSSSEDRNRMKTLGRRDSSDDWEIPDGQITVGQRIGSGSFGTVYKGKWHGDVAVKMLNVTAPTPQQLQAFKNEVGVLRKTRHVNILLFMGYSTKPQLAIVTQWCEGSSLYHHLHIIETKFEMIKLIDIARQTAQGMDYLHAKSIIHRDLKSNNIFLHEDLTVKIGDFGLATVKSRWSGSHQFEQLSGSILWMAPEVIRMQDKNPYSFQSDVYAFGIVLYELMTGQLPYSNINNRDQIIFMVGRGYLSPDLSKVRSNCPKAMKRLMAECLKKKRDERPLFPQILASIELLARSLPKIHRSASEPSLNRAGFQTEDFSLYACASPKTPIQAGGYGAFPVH
PRKCE, sequence (Q02156 whole entry): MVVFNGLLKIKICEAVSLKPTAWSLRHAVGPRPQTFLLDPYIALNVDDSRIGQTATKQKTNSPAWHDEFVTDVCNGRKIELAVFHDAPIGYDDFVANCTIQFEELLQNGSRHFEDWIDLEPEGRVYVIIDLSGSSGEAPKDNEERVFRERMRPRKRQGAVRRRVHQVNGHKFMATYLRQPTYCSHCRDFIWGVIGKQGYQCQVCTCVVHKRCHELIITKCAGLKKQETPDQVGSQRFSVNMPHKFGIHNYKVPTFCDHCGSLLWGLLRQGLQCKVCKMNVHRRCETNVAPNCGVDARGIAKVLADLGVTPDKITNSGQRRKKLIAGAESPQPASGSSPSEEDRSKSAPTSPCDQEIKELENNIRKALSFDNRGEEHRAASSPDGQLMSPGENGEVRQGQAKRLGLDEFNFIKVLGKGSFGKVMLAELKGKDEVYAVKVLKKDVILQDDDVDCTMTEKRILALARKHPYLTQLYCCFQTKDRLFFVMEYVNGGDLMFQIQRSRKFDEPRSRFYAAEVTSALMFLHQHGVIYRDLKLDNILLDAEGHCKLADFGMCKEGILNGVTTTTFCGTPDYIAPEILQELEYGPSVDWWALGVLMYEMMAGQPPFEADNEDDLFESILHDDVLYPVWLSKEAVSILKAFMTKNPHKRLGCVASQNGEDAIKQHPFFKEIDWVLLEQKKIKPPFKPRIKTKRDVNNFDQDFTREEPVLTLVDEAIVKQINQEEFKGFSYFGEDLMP

Compound `C=CC(=O)Nc1cc(-n2c(=O)ccc3cnc4ccc(-n5cccn5)cc4c32)ccc1C` [CHMFL-BTK-11] has a remaining binding at 1 µM [1] of 100%, a remaining binding at 1 µM [2] of 100% and a remaining binding at 1 µM [3] of 88%. The remaining binding at 1 µM [4] was 97%, the remaining binding at 1 µM [5] was 87% and the remaining binding at 1 µM [6] was 71%. For the same compound, the remaining binding at 1 µM [7] was 98%, the remaining binding at 1 µM [8] was 100% and the remaining binding at 1 µM [9] was 100%. The remaining binding at 1 µM [10] was 100%, the remaining binding at 1 µM [11] was 86% and the remaining binding at 1 µM [12] was 100%. It also gave a remaining binding at 1 µM [13] of 100%, a remaining binding at 1 µM [14] of 100% and a remaining binding at 1 µM [15] of 90%. It also gave a remaining binding at 1 µM [16] of 93%, a remaining binding at 1 µM [17] of 100% and a remaining binding at 1 µM [18] of 94%. For the same compound, the remaining binding at 1 µM [19] was 97%, the remaining binding at 1 µM [20] was 82% and the remaining binding at 1 µM [21] was 100%. The remaining binding at 1 µM [22] was 100%, the remaining binding at 1 µM [23] was 99% and the remaining binding at 1 µM [24] was 100%. For the same compound, the remaining binding at 1 µM [25] was 100%.

From article PMC5428509, “Irreversible inhibition of BTK kinase by a novel highly selective inhibitor CHMFL-BTK-11 suppresses inflammatory response in rheumatoid arthritis model” (Scientific Reports, 2017)
